Entries after “also recorded” stand apart in the source; their conditions may differ.
How the values were obtained:
[1] = system: panic-prone (1-AG treated) rats; test: Sodium lactate (NaLac) challenge in panic-prone rats: open field test; format: in vivo, rat; conditions: 30 mg/kg i.p. 30 min prior to NaLac, experiment 5
Method: (§1) The open-field arena covered an area of 0.9 m×0.9 m, with 0.4 m high walls. The open-field arena was divided into a 6×6 grid of equally-sized squares using black tape (36 total squares) with 4 squares forming the centre; 12 squares forming the middle perimeter; and 20 squares forming the outer perimeter. The test started by placing a rat in the centre. The behavior of each rat in the open-field arena was recorded on video and scored afterwards by an observer blind to the experimental treatment of each rat. Time spent in each region of the open-field was recorded.
In experiments 4-6, rats were made panic vulnerable with 1-AG. […] In experiment 5, baseline in an open field (OF) behavior test of anxiety was assessed (n=8) prior to 1-AG infusions. […] In experiment 7, control rats (no 1-AG or NaLac treatment) were assessed in a SI test.
All adult male Sprague-Dawley rats were anesthetized and surgically implanted with telemetrical probes to measure cardiovascular activity prior to and during lactate infusions. After a 3 day recovery, baseline open field behavior was assessed (n=8), then rats were anaesthetized and had osmotic minipumps (previously filled with 1-AG) stereotaxically implanted unilaterally into the DMH. […] Immediately following the lactate challenge, the rats were assessed for anxiety using the open field test.

control rats = test: Baseline behavior and cardiovascular activity in control rats; format: in vivo, rat; conditions: control rats (no 1-AG or NaLac), 30 mg/kg i.p., 30 min following injection
Method: In experiments 4-6, rats were made panic vulnerable with 1-AG. 5 days after 1-AG onset, in a counterbalanced design, rats received intraperitoneal (i.p.) injections of treatment drug or vehicle 30 min prior to i.v. infusions. […] In experiment 5, baseline in an open field (OF) behavior test of anxiety was assessed (n=8) prior to 1-AG infusions. […] Immediately following the NaLac challenge, rats were placed in the OF test. […] In experiment 6,1-AG treated rats received an injection of an alternative ORX1 receptor antagonist (30 mg/kg SB408124 (N-(6,8-Difluoro-2-methyl-4-quinolinyl)-N′-(4-(dimethylamino)phenyl)urea), Tocris, in 0.2 ml/100 g volume DMSO, n=4) or vehicle (0.2 ml/100 g volume DMSO, n=6) 30 min prior to NaLac. In experiment 7, control rats (no 1-AG or NaLac treatment) were assessed in a SI test.
Adult male Sprague-Dawley rats were anesthetized and surgically implanted with telemetrical probes to measure cardiovascular activity prior to and during lactate infusions. […] 1960, Tocris, in 0.2 ml/100 g volume DMSO, n=7] or vehicle (0.2 ml/100 g volume DMSO, n=7). Cardiovascular activity and SI tests were monitored 30 min following injection at similar time points.

[2] = system: rats exposed to hypercarbic gas; test: Hypercarbic gas (20% CO2) challenge: open-field test; format: in vivo, rat; conditions: 30 mg/kg i.p.
Method: On day 1, rats (n=3/group) were selected from their home cages and placed into experimental cages containing atmospheric air. […] Fecal pellets were counted in cages at the end of gas challenges. In order to assess anxiety-like behavioural responses following exposure to hypercarbic gas, rats were immediately transferred to an adjacent room and place in the center square of an open-field box for a 5 min test. On day 2, the experiment was repeated, but the treatments were reversed for each rat. For instance, rats that received atmospheric gas challenge on day 1 received the hypercapnic gas challenge on day 2.
as §1, with “90 cm×90 cm,” for “0.9 m×0.9 m,”, “40 cm” for “0.4 m”, “center;” for “centre;”, “center.” for “centre.”, “observer (PLJ)” for “observer”, “recorded. In addition, locomotor activity was assessed by counting the number of times the rat's entire body (excluding tail) completely crossed into another square.” for “recorded.”
All rats received hypercarbic gas infusions as described in detail in Experiment 11. […] Blood pressure, heart rate, locomotor activity, number of fecal pellets and anxiety-like behavior were assessed as described in Experiment 11.
Dependent variables for analyses of cardiovascular responses (HR, MAP) and locomotor activity were analysed using a […], using gas infusion as the between-subjects factor and time as a within-subjects factor. Dependent variables for the number of fecal pellets and open-field anxiety test (i.e., time spent in each section, line crossings) were analysed using a one-way ANOVA with gas infusion in Experiment 11 and drug treatment in Experiment 12 as the between-subjects factors. […] Within-subjects comparisons were also made on the MAP and HR measures using a Dunnett's test for multiple comparisons with a single control using the 5 Min baseline measurement as the control. The alpha level was set at 0.05 in all cases.

FG-7142 treated rats = test: FG-7142-induced anxiety: open field, social interaction and elevated plus maze tests; format: in vivo, rat; conditions: Wistar rats
Method: All experiments were conducted on adult male Wistar rats (250-300 g) purchased from Harlan Laboratories (Indianapolis, Ind. USA) and were housed individually in plastic cages under standard environmental conditions (22° C.; 12/12 light/dark cycle; lights on at 7:00 A.M.) for 7-10 days prior to the surgical manipulations. Food and water were provided ad libitum.
as §1, with “90 cm×90 cm,” for “0.9 m×0.9 m,”, “40 cm” for “0.4 m”, “recorded. In addition, locomotor activity was assessed by counting the number of times the rat's entire body (excluding tail) completely crossed into another square.” for “recorded.”
Following the OFT, the experimental rat was placed in an open field (0.9 m long×0.9 m wide with walls 0.3 m high) with an untreated novel partner rat. A video camera was fixed above the box, and all behavioral tests were videotaped. During the 5 min test the total amount of time the treated rat initiates interaction with the partner rat is recorded (sniffing, grooming etc.) as described previously. Videotaped sessions were scored at a later time by a SDF (blind to treatments) and a decrease in total interaction time was taken as an increase in “anxiety” like behavior.
Following the SI test, rats were place in the center area of the EPM where the two arms intersect. Unlike the SI test, the EPM measures many relevant anxiety related behaviors such as: no. of poke and full entries into and duration spent in closed versus open arm. […] Activity is measured using […] state of the art photobeams (16× beams and 16 Y beams) to provide the highest resolution system available (Automated EPM, Hamilton Kinder Scientific, San diego, CA).

[3] = in vivo; cited from earlier work

Cc1nc2ccc(NC(=O)Nc3ccnc4cccnc34)cc2o1 [SB334867, N-(2-Methyl-6-benzoxazolyl)-N′-1,5-naphthyridin-4-yl urea]
anxiety-like responses (decreased time spent in center of open field) after NaLac challenge [1]: attenuated | HR in control rats (control rats): had no effect; also recorded: does not alter; also recorded: did not alter | MAP in control rats (control rats): had no effect; also recorded: does not alter; also recorded: did not alter | time spent in the center of open field after hypercarbic gas ([2]; between groups): No differences | time spent in the outer perimeter of open field after hypercarbic gas ([2]; between groups): No differences | hypercapnic gas-induced anxiety responses ([2]; 20% CO2/normoxic gas): attenuated | time in the middle perimeter region of open field after hypercarbic gas ([2]; SB/CO2 vs Veh/CO2 group): significantly more time | time in open arms of elevated plus maze (FG-7142 treated rats; FG-7142 7.5 mg/kg ip, with or without SB334867 30 mg/kg ip): higher time in open arms | FG-7142-induced anxiety behavior in the social interaction test (FG-7142 treated rats; SB334867 30 mg/kg ip followed by FG-7142 7.5 mg/kg ip): blocked | FG-7142 induced anxiety in the open field test (FG-7142 treated rats; SB334867 30 mg/kg ip followed by FG-7142 7.5 mg/kg ip, 15 min after FG-7142): appeared to have attenuated | blood-brain barrier passage [3]: crosses the blood-brain barrier

Source: patent publication US8877773B2, “Methods for treating chronic obstructive pulmonary disease” (Indiana University Research and Technology Corporation, priority 2009, dated 2014)
